Reference: patent US8835124B2, “Method for treating cancer with agents that bind phosphorylated CDC27” (The Nemours Foundation, priority 2011, dated 2014)

Columns and labels:
Cdc27 [1] = assay: Cdc27 immunoblot of cell lines after curcumin treatment; assay type: cell-based; conditions: 20 μM curcumin for 0, 4, 8 and 24 hours; DAOY, NT2, D283 Med, D341 Med, HCT116, HT1376, RT4, MDCK
Protocol: Cell lysates were prepared in a buffer containing 20 mM Tris (pH 7.5), 150 mM NaCl, 1 mM EDTA, 1 mM EGTA, 0.1% Triton X-100, 2.5 mM sodium pyrophosphate, 1 mM β-glycerol phosphate, 1 mM sodium vanadate, 1 mM phenylmethylsulfonyl fluoride and 5 μg/ml of antipapain, leupeptin and pepstatin (protease inhibitor cocktail). Protein concentrations were determined by the Dc protein assay (Bio-Rad, Hercules, Calif.). Equal amounts of protein were resolved by SDS-PAGE and transferred to nitrocellulose. The membranes were blocked in 5% non-fat milk in Tris-buffered saline with 0.1% […] (TBST). Primary antibodies diluted in 5% bovine serum albumin/TBST were incubated overnight at 4° C. and HRP-conjugated secondary antibodies in 5% non-fat milk/TBST for 2 hours at room temperature. Protein bands were visualized by Enhanced Chemiluminescence Plus (GE Healthcare, Piscataway, N.J.).
The cell lines DAOY, NT2, D283 Med, D341 Med (brain); HCT116 (colon); HT1376, RT4 (bladder); MDCK (kidney) were screened for Cdc27 phosphorylation by immunoblot of Cdc27. […] Actin immunoblot is shown as loading control.
Arrows indicate crosslinked Cdc27, while arrowheads show phosphorylated Cdc27. Equal amounts of protein were used as shown by actin immunoblot.

medulloblastoma = medulloblastoma in vivo model; cited from earlier work
medulloblastoma cells = conditions: cited from earlier work
[2] = target: T1, Cdc27 association with p55Cdc20, APC2, APC8 (Homo sapiens, UniProt P30260); assay: Co-immunoprecipitation with anti-Cdc27 antibodies; assay type: cell-based; conditions: DAOY, curcumin for 8 hours
T1 construct: endogenous in cells
Protocol: For immunoprecipitation, cells were lysed at 4° C. for 30 min in a buffer of 50 mM HEPES, pH 7.4, 150 mM NaCl 0.5% NP-40, 1 mM EDTA, 1 mM Na3VO4, 1 mM aprotinin, 1 mM leupeptin and 1 mM PMSF. Equal amounts of protein (from 0.5 to 2 mg) were incubated with Cdc27 antibody for 4 hours at 4° C. followed by protein G-Sepharose (GE Healthcare) for 2 hours, washed extensively, and analyzed by immunoblotting with indicated antibodies. For λ-phosphatase treatment, Cdc27 was immunoprecipitated as above except that phosphatase and protease inhibitors were omitted and then incubated with λ-[…]phosphatase according to the manufacturer's protocol (New England Biolabs, Ipswich, Mass.).
Proper APC/C function requires co-activator proteins such as Cdc20 or Cdh1 that may facilitate the recruitment of substrates. […] Cell lysates were subjected to immunoprecipitation with anti-Cdc27 antibodies. Immunoprecipitated proteins were immunoblotted with antibodies to APC2, APC8, p55 Cdc20 or Cdh1. Immunoblots of total cell lysates are shown to ensure equal loading. […] Under the experimental conditions used, Cdh1 was not found to be associating with Cdc27 (FIG. 8C).

APC/C = target: T2, APC/C (Homo sapiens, UniProt P30260); assay: In vitro APC assay (ubiquitin ligase activity on cyclin B); assay type: biochemical; conditions: DAOY released from G2/M block with 20 μM or 40 μM curcumin; two hours vs one hour of release
T2 construct: Cell pellets of control and curcumin-treated DAOY cells were snap frozen in liquid nitrogen; endogenous in cells; host or cells: DAOY cell lysate, 30 μg total protein
Protocol: In vitro APC assays were performed as described (Rajasekaran et al., Molecular Cancer Therapeutics 7(7); 2142-2151 (2008) using an in vitro transcribed and translated N-terminal fragment of cyclin B1 (cyclin B1-N1-102) as substrate, ^35S-methionine labeled cyclin B1-N1-102 was obtained using the TNT quick-coupled Transcription/Translation system (Promega, Madison, Wis.). Cell pellets of control and curcumin-treated DAOY cells were snap frozen in liquid nitrogen. The cell pellets were resuspended in an ice-cold hypotonic buffer (20 mM Hepes pH 7.6, 20 mM NaF, 1.5 mM MgCl2, 1 mM DTT, 5 mM KCl, 20 mM β-glycerophosphate, 250 μM NaVO3, 1 mM PMSF, and EDTA-free protease inhibitors) and incubated for 30 minutes on ice. The lysates were briefly homogenized and cleared by a 1 hour centrifugation at 13,000 rpm in a micro centrifuge. For the assay, 30 μg of total protein were added to reaction buffer containing 20 mM Tris pH 7.5, 20 mM NaCl, 5 mM MgCl2, 5 mM ATP-γ-S, 20 μg/ml MG-132, 0.5 μg UbcH10, 20 μM ubiquitin, 1 μm ubiquitin aldehyde, protease inhibitor, and 2 μl of in vitro translated ^35S-cyclin B1-N1-102 and incubated at 37° C. for 60 minutes. The reactions were stopped by adding sample buffer and proteins were separated by SDS-PAGE on a 4-15% gradient gel. To visualize the bands, the gel was incubated and enhanced with salicylate, dried, and then subjected to autoradiography. […]

DAOY cells = assay: LDH release cytotoxicity assay; assay type: cell-based, human; conditions: 24 hours, 0, 5, 10 and 20 μM; high phosphorylated Cdc27
Protocol: Lactate dehydrogenase (LDH) levels as a measure of cell death were determined using the Non-radioactive Cytotoxicity kit (Promega, Madison, Wis.) according to manufacturer's instructions. […] Cell debris was removed by centrifugation. Viable cell LDH was collected from cells lysed by freezing for 15 minutes at −70° C. followed by thawing at 37° C. The medium was collected and cleared from cell debris by centrifugation. The relative release of LDH was determined as the ratio of released LDH versus total LDH from viable cells.
Data represent mean±SEM of three independent experiments.

Cdc27 [3] = target: T3, Cdc27 (Homo sapiens, UniProt P30260); assay: Cdc27 immunoblot, molecular weight shift (crosslinking) in treated DAOY cells; assay type: cell-based
T3 construct: endogenous in cells; host or cells: DAOY medulloblastoma cells
T3 sequence (P30260 1-830 isoform P30260-2): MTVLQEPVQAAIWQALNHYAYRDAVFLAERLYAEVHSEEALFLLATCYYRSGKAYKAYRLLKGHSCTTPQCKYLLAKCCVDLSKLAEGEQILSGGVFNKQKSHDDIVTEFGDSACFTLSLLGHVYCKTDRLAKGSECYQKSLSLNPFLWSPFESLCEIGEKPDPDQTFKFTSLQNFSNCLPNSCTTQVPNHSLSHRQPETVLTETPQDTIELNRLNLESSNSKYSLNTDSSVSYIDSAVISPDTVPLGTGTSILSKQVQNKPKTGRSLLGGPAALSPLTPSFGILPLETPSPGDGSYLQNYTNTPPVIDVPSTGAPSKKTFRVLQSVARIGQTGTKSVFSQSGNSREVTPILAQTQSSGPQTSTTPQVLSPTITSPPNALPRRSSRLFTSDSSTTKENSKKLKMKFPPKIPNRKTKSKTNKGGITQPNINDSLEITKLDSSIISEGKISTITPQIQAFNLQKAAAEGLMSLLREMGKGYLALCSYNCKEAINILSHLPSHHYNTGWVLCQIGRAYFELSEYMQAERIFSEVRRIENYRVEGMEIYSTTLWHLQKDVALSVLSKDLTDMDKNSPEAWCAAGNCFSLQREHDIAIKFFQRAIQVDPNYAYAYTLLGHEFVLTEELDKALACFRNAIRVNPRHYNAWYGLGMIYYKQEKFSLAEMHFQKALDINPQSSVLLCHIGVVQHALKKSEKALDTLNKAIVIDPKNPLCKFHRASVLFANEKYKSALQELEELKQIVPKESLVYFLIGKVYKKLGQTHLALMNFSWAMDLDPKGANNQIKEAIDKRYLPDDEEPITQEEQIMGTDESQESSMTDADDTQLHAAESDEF
Protocol: Cell lysates were prepared in a buffer containing 20 mM Iris (pH 7.5), 150 mM NaCl, 1 mM EDTA, 1 mM EGTA, 0.1% Triton X-100, 2.5 mM sodium pyrophosphate, 1 mM β-glycerol phosphate, 1 mM sodium vanadate, 1 mM phenylmethylsulfonyl fluoride and 5 μg/ml of antipapain, leupeptin and pepstatin (protease inhibitor cocktail). Protein concentrations were determined by the Dc protein assay (Bio-Rad, Hercules, Calif.). Equal amounts of protein were resolved by SDS-PAGE and transferred to nitrocellulose. The membranes were blocked in 5% non-fat milk in Tris-buffered saline with 0.1% Tween-20 (TBST). Primary antibodies diluted in 5% bovine serum albumin/TBST were incubated overnight at 4° C. and HRP-conjugated secondary antibodies in 5% non-fat milk/TBST for 2 hours at room temperature. Protein bands were visualized by Enhanced Chemiluminescence Plus (GE Healthcare, Piscataway, N.J.).
The cell lysates were separated by SDS-PAGE and immunoblotted for Cdc27. […] Data represent mean±SEM of three independent experiments.

COc1cc(/C=C/C(=O)CC(=O)/C=C/c2ccc(O)c(OC)c2)ccc1O [Curcumin, (E,E)-1,7-bis(4-hydroxy-3-methoxyphenyl)-1,6-heptadiene-3,5-dion]
crosslinking of Cdc27 in cell lines (Cdc27 [1]): Only in cell lines with the phosphorylated form of Cdc27 was curcumin able to crosslink Cdc27
medulloblastoma growth (medulloblastoma): can inhibit medulloblastoma growth
cell cycle arrest and apoptosis (medulloblastoma cells): induces G2/M arrest and apoptosis
Cdc27 association with the APC/C subunits APC2 and APC8 [2]: not affected
p55Cdc20 association with Cdc27 ([2]; compared to control cells): dramatically reduced
APC activity (APC/C): reduced
sensitivity to curcumin-induced apoptosis (LDH release) (DAOY cells): most sensitive
induction of high molecular weight bands of Cdc27 (crosslinking) (Cdc27 [3]; DAOY, 0, 3, 6, 9 or 24 hours): induces the formation of Cdc27 dimers
high molecular weight (MW) band of Cdc27 (Cdc27 [3]; curcumin-treated DAOY cells, immunoblot): approximately double the MW of Cdc27
